Measurements reported in patent US20100227895A1, “METHOD FOR TREATING EQUINE LAMINITIS” (MPCO- THE MAGIC POWDER COMPANY, priority 2009, published 2010).

Assays:
equine laminitis = assay: Oral treatment of horses with laminitis (case examples); format: in vivo, horse
Procedure: The preferred form of practicing the present method will now be described for a horse weighing approximately 500 kg. In practicing the present method, the four main ingredients that are administered to prevent, treat and/or cure laminitis are: choline bitartrate, L-tyrosine, Niacin, and d-Calcium Pantothenate. These ingredients may be administered in corresponding approximate ratios of 40:41:8:16 (by weight). In the preferred embodiment, an approximately 35 day supply of the treatment includes 80 grams of choline bitartrate, 82 grams of L-tyrosine, 16 grams of niacin, and 32 grams of d-calcium pantothenate. Each dose for oral administration contains approximately 1127.5 mg of choline bitartrate, 1155.6 mg of L-tyrosine, 225.5 mg of niacin, and 451.1 mg of d-Calcium pantothenate. Preferably, this dosage is administered twice per day to an affected horse.
A quarter-horse mare first experienced laminitis at age 5 after exposure to septic waste from a failing septic field. This first bout with laminitis lasted roughly two years. At age 9, the mare was left on a heavily grazed pasture for one day and developed laminitis, the second onset of the disease during its life, presumably from exposure to fructans in grass. Transportation of the mare exacerbated the laminitis symptoms. The mare recovered gradually, but spent a lot of time lying down. […]

[1] = target: tyrosine hydroxylase (TH) (Homo sapiens, UniProt P07101); details: concentration of T at which the reaction proceeds at 50% of the maximal rate; cited from earlier work
tyrosine hydroxylase (TH), sequence (P07101 whole entry): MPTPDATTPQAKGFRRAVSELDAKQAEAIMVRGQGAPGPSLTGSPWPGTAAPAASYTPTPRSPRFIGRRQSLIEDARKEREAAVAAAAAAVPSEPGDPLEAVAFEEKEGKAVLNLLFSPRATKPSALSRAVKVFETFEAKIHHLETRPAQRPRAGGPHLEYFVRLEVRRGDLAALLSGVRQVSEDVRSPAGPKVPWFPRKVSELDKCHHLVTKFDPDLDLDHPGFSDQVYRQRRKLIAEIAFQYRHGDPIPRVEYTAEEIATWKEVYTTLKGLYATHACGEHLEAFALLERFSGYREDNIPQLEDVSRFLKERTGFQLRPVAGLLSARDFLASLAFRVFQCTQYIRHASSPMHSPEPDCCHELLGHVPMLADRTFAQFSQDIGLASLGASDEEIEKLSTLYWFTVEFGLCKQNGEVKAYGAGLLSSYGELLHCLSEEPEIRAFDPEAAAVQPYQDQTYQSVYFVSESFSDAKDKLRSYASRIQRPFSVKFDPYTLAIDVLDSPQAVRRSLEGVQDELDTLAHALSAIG

NE synthesis = details: analogous to the KM of the overall reaction; read-out: concentration of tyrosine at the half-maximal rate of NE synthesis; cited from earlier work

Compound: N[C@@H](Cc1ccc(O)cc1)C(=O)O [tyrosine, 4-hydroxyphenylalanine]
- condition of the mare with laminitis (equine laminitis; Example 1, quarter-horse mare, second onset of laminitis, initial dosing, daily for nearly 90 days): improved the condition
- recurrence of laminitis (equine laminitis; Example 2, ten year-old mare, recommended dosage after the bout): did not re-experience laminitis
- Km [1]: ~25 µM
- EC50 (NE synthesis): 10 to 40 µM
